The source of these data is patent US10717742B2, “Spiro[3H-indole-3,2′-pyrrolidin]-2(1H)-one compounds and derivatives as MDM2-P53 inhibitors” (Boehringer Ingelheim International GmbH, priority 2015, dated 2020).

Molecules are shown by their SMILES.

Chain of p53-MDM2 interaction (GST-MDM2 protein aa 23-117 / biotinylated p53 wt peptide) (Q00987 23-117): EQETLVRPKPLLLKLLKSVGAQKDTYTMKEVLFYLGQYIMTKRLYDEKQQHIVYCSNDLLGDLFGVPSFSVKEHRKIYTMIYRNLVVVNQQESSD

The target of this experiment is p53-MDM2 interaction (GST-MDM2 protein aa 23-117 / biotinylated p53 wt peptide) (Homo sapiens (Human), UniProt Q00987). In words: Mdm2-p53 Inhibition AlphaScreen. The conditions noted are these: GST-MDM2 (aa 23-117) / biotinylated p53 wt peptide. Type of experiment: binding. The protocol:
Mdm2-p53 Inhibition AlphaScreen
15 μL of compound in 20% DMSO (serial pre-dilutions of compound are done in 100% DMSO) is pipetted to the wells of a white OptiPlate-96 (Perkin Elmer). A mix consisting of 20 nM GST-MDM2 protein (aa 23-117) and 20 nM biotinylated p53 wt peptide (encompassing aa 16-27 of wt human p53, amino acid sequence […]-Ttds-Lys-Biotin, molecular weight 2132.56 g/mol) is prepared in assay buffer (50 mM Tris/HCl pH 7.2; 120 mM NaCl; 0.1% bovine serum albumin (BSA); 5 mM dithiothreitol (DTT); 1 mM ethylenediaminetetraacetic acid (EDTA); 0.01% Tween 20). 30 μL of the mix is added to the compound dilutions and incubated for 15 min at rt while gently shaking the plate at 300 rounds per minute (rpm). Subsequently, 15 μL of premixed AlphaLISA Glutathione Acceptor Beads and AlphaScreen Streptavidin Donor Beads from PerkinElmer (in assay buffer at a concentration of 10 μg/mL each) are added and the samples are incubated for 30 min at rt in the dark (shaking 300 rpm). Afterwards, the signal is measured in a PerkinElmer Envision HIS Multilabel Reader using the AlphaScreen protocol from Perkin Elmer.
Each plate contains negative controls where biotinylated p53-peptide and GST-MDM2 are left out and replaced by assay buffer. Negative control values are entered as low basis value when using the software GraphPad Prism for calculations. Furthermore, a positive control (5% DMSO instead of test compound; with protein/peptide mix) is pipetted. Determination of IC50 values are carried out using GraphPad Prism 3.03 software (or updates thereof).
A general note: Alpha assays give light when donor and acceptor beads are brought close together.
In turn, `Cc1c(C(=O)O)ccc2c1nc1n2CC[C@H]2[C@@H]1[C@H](c1cccc(Cl)c1F)[C@]1(C(=O)Nc3cc(Cl)ccc31)N2CC1CC1` [Ib-160] gave a half-inhibitory concentration (IC50) of 4 nM.
With `Cc1cc2c(nc3n2CC[C@H]2[C@@H]3[C@H](c3cccc(Cl)c3F)[C@]3(C(=O)Nc4cc(Cl)ccc43)N2CC2CC2)c(C)c1C(=O)O` [Ib-161] the figure was 11 nM; with `CC(C)c1cc2c(cc1C(=O)O)nc1n2CC[C@H]2[C@@H]1[C@H](c1cccc(Cl)c1F)[C@]1(C(=O)Nc3cc(Cl)ccc31)N2CC1CC1` [Ib-162], 6 nM; with `O=C(O)c1cc2nc3n(c2cc1F)CC[C@H]1[C@@H]3[C@H](c2cccc(Cl)c2F)[C@]2(C(=O)Nc3cc(Cl)ccc32)N1CC1CC1` [Ib-163], 2 nM.
With `O=C(O)c1cc2nc3n(c2cc1C(F)(F)F)CC[C@H]1[C@@H]3[C@H](c2cccc(Cl)c2F)[C@]2(C(=O)Nc3cc(Cl)ccc32)N1CC1CC1` [Ib-164] the figure was 3 nM.
The same measure for `O=C(O)C1(c2ccc3c(c2)nc2n3CC[C@H]3[C@@H]2[C@H](c2cccc(Cl)c2F)[C@]2(C(=O)Nc4cc(Cl)ccc42)N3CC2CC2)CC1` [Ib-165]: 28 nM.
The molecule `CC(C)(C(=O)O)c1ccc2c(c1)nc1n2CC[C@H]2[C@@H]1[C@H](c1cccc(Cl)c1F)[C@]1(C(=O)Nc3cc(Cl)ccc31)N2CC1CC1` [Ib-167] had a half-inhibitory concentration (IC50) of 22 nM.
With `O=C(O)Cc1ccc2c(c1)nc1n2CC[C@H]2[C@@H]1[C@H](c1cccc(Cl)c1F)[C@]1(C(=O)Nc3cc(Cl)ccc31)N2CC1CC1` [Ib-169] the figure was 7 nM; with `O=C(O)c1ccc2c(c1)nc1n2CC[C@H]2[C@@H]1[C@H](c1cccc(Cl)c1F)[C@]1(C(=O)Nc3nc(Cl)ccc31)N2CC1CC1` [Ib-171], 10 nM; with `CCOc1cccc(CN2[C@H]3CCn4c(nc5cc(C(=O)O)ccc54)[C@H]3[C@H](c3cccc(Cl)c3F)[C@]23C(=O)Nc2nc(Cl)ccc23)c1` [Ib-173], 7 nM.
As for `O=C(O)c1ccc2c(c1)nc1n2C[C@H]2[C@@H]1[C@H](c1cccc(Cl)c1F)[C@]1(C(=O)Nc3cc(Cl)ccc31)N2CC1CC1` [Ib-175], the half-maximal inhibitory concentration (IC50) was 3 nM.
`O=C(O)c1ccc2c(c1)nc1n2C[C@H]2[C@@H]1[C@H](c1cccc(Cl)c1F)[C@]1(C(=O)Nc3cc(Cl)ccc31)N2CC1CC1` [Ib-176]: the IC50 was 2 nM.
With `O=C(O)c1ccc2c(c1)nc1n2C[C@@H]2[C@H]1[C@@H](c1cccc(Cl)c1F)[C@@]1(C(=O)Nc3cc(Cl)ccc31)N2CC1CC1` [Ib-177] the figure was 53 nM; with `O=C(O)c1ccc2nc3n(c2c1)C[C@H]1[C@@H]3[C@H](c2cccc(Cl)c2F)[C@]2(C(=O)Nc3cc(Cl)ccc32)N1CC1CC1` [Ib-178], 4 nM; with `O=C(O)c1ccc2nc3n(c2c1)C[C@H]1[C@@H]3[C@H](c2cccc(Cl)c2F)[C@]2(C(=O)Nc3cc(Cl)ccc32)N1CC1CC1` [Ib-179], 2 nM.
As for `O=C(O)c1ccc2nc3n(c2c1)C[C@@H]1[C@H]3[C@@H](c2cccc(Cl)c2F)[C@@]2(C(=O)Nc3cc(Cl)ccc32)N1CC1CC1` [Ib-180], half-maximal inhibition (IC50) was put at 83 nM.
The same measure for `COCc1cccc(CN2[C@H]3Cn4c(nc5cc(C(=O)O)ccc54)[C@H]3[C@H](c3cccc(Cl)c3F)[C@]23C(=O)Nc2cc(Cl)ccc23)c1` [Ib-183]: 3 nM; for `COCc1cccc(CN2[C@H]3Cn4c(nc5cc(C(=O)O)ccc54)[C@H]3[C@H](c3cccc(Cl)c3F)[C@]23C(=O)Nc2cc(Cl)ccc23)c1` [Ib-184]: 2 nM; for `COCc1cccc(CN2[C@@H]3Cn4c(nc5cc(C(=O)O)ccc54)[C@@H]3[C@@H](c3cccc(Cl)c3F)[C@@]23C(=O)Nc2cc(Cl)ccc23)c1` [Ib-185]: 14 nM.
With `COc1cccc(CCN2[C@H]3Cn4c(nc5cc(C(=O)O)ccc54)[C@H]3[C@H](c3cccc(Cl)c3F)[C@]23C(=O)Nc2cc(Cl)ccc23)c1` [Ib-186] the figure was 4 nM; with `Cc1cc2c(cc1C(=O)O)nc1n2C[C@H]2[C@@H]1[C@H](c1cccc(Cl)c1F)[C@]1(C(=O)Nc3cc(Cl)ccc31)N2CC1CC1` [Ib-188], 3 nM.
The same measure for `Cc1c(C(=O)O)ccc2c1nc1n2C[C@H]2[C@@H]1[C@H](c1cccc(Cl)c1F)[C@]1(C(=O)Nc3cc(Cl)ccc31)N2CC1CC1` [Ib-189]: 3 nM; for `Cc1c(C(=O)O)ccc2c1nc1n2C[C@H]2[C@@H]1[C@H](c1cccc(Cl)c1F)[C@]1(C(=O)Nc3cc(Cl)ccc31)N2CC1CC1` [Ib-190]: 2 nM.
For `CCN1[C@H]2Cn3c(nc4cc(C(=O)O)c(C)cc43)[C@H]2[C@H](c2cccc(Cl)c2F)[C@]12C(=O)Nc1cc(Cl)ccc12` [Ib-191], half-maximal inhibition (IC50) required 6 nM.
As to `O=C(O)c1ccc2c(nc3n2C[C@H]2[C@@H]3[C@H](c3cccc(Cl)c3F)[C@]3(C(=O)Nc4cc(Cl)ccc43)N2CC2CC2)c1C(F)(F)F` [Ib-193], inhibition was half-maximal at 3 nM (IC50).
With `O=C(O)c1cc2nc3n(c2cc1C(F)(F)F)C[C@H]1[C@@H]3[C@H](c2cccc(Cl)c2F)[C@]2(C(=O)Nc3cc(Cl)ccc32)N1CC1CC1` [Ib-195] the figure was 6 nM.
With `O=C(O)c1cc2nc3n(c2cc1OC(F)(F)F)C[C@H]1[C@@H]3[C@H](c2cccc(Cl)c2F)[C@]2(C(=O)Nc3cc(Cl)ccc32)N1CC1CC1` [Ib-197], the half-maximal inhibitory concentration (IC50) turned out to be 2 nM.
The same measure for `O=C(O)c1ccc2c(c1)nc1n2C[C@H]2[C@@H]1[C@H](c1cccc(Br)c1F)[C@]1(C(=O)Nc3cc(Cl)ccc31)N2CC1CC1` [Ib-198]: 4 nM; for `O=C(O)c1ccc2c(c1)nc1n2C[C@H]2[C@@H]1[C@H](c1cc(Cl)cs1)[C@]1(C(=O)Nc3cc(Cl)ccc31)N2CC1CC1` [Ib-200]: 3 nM; for `O=C(O)c1ccc2c(c1)nc1n2C[C@H]2[C@@H]1[C@H](c1ccc(Cl)s1)[C@]1(C(=O)Nc3cc(Cl)ccc31)N2CC1CC1` [Ib-202]: 7 nM.
With `Cc1c(C(=O)O)ccc2nc3n(c12)CC[C@H]1[C@@H]3[C@H](c2cccc(Cl)c2F)[C@]2(C(=O)Nc3cc(Cl)ccc32)N1CC1CC1` [Ib-204] the figure was 2 nM.
The same measure for `Cc1cc(C(=O)O)cc2c1nc1n2CC[C@H]2[C@@H]1[C@H](c1cccc(Cl)c1F)[C@]1(C(=O)Nc3cc(Cl)ccc31)N2CC1CC1` [Ib-205]: 3 nM; for `Cc1c(C(=O)O)ccc2nc3n(c12)CC[C@H]1[C@@H]3[C@H](c2cccc(Cl)c2F)[C@]2(C(=O)Nc3cc(Cl)ccc32)N1CC1CC1` [Ib-206]: 4 nM.
Take `Cc1c(C(=O)O)ccc2c1nc1n2CC[C@H]2[C@@H]1[C@H](c1ccnc(Cl)c1F)[C@]1(C(=O)Nc3cc(Cl)ccc31)N2CC1CC1` [Ib-207]: the IC50 was 8 nM.
For `CNC(=O)c1ccc2c(c1)nc1n2CC[C@H]2[C@@H]1[C@H](c1cccc(Cl)c1F)[C@]1(C(=O)Nc3cc(Cl)ccc31)N2CC1CC1` [Ib-209], the concentration for half-maximal inhibition (IC50) turned out to be 3 nM.
Molecule `NC(=O)c1ccc2c(c1)nc1n2CC[C@H]2[C@@H]1[C@H](c1cccc(Cl)c1F)[C@]1(C(=O)Nc3cc(Cl)ccc31)N2CC1CC1` [Ib-210] showed an IC50 of 4 nM.
With `CN(C)C(=O)c1ccc2c(c1)nc1n2CC[C@H]2[C@@H]1[C@H](c1cccc(Cl)c1F)[C@]1(C(=O)Nc3cc(Cl)ccc31)N2CC1CC1` [Ib-211] the figure was 11 nM; with `O=C(NC1CC1)c1ccc2c(c1)nc1n2CC[C@H]2[C@@H]1[C@H](c1cccc(Cl)c1F)[C@]1(C(=O)Nc3cc(Cl)ccc31)N2CC1CC1` [Ib-212], 5 nM; with `CC(C)(O)CNC(=O)c1ccc2c(c1)nc1n2CC[C@H]2[C@@H]1[C@H](c1cccc(Cl)c1F)[C@]1(C(=O)Nc3cc(Cl)ccc31)N2CC1CC1` [Ib-213], 7 nM.
The same measure for `O=C(NC(CO)CO)c1ccc2c(c1)nc1n2CC[C@H]2[C@@H]1[C@H](c1cccc(Cl)c1F)[C@]1(C(=O)Nc3cc(Cl)ccc31)N2CC1CC1` [Ib-214]: 3 nM; for `O=C(NCCO)c1ccc2c(c1)nc1n2CC[C@H]2[C@@H]1[C@H](c1cccc(Cl)c1F)[C@]1(C(=O)Nc3cc(Cl)ccc31)N2CC1CC1` [Ib-215]: 4 nM.
The same measure for `COCCNC(=O)c1ccc2c(c1)nc1n2CC[C@H]2[C@@H]1[C@H](c1cccc(Cl)c1F)[C@]1(C(=O)Nc3cc(Cl)ccc31)N2CC1CC1` [Ib-216]: 7 nM; for `COCC(COC)NC(=O)c1ccc2c(c1)nc1n2CC[C@H]2[C@@H]1[C@H](c1cccc(Cl)c1F)[C@]1(C(=O)Nc3cc(Cl)ccc31)N2CC1CC1` [Ib-217]: 4 nM.
In the case of `O=C(NC(CO)(CO)CO)c1ccc2c(c1)nc1n2CC[C@H]2[C@@H]1[C@H](c1cccc(Cl)c1F)[C@]1(C(=O)Nc3cc(Cl)ccc31)N2CC1CC1` [Ib-218], 6 nM corresponded to half-maximal inhibition (IC50).
With `COCCOCCNC(=O)c1ccc2c(c1)nc1n2CC[C@H]2[C@@H]1[C@H](c1cccc(Cl)c1F)[C@]1(C(=O)Nc3cc(Cl)ccc31)N2CC1CC1` [Ib-219] the figure was 5 nM.
`O=C(c1ccc2c(c1)nc1n2CC[C@H]2[C@@H]1[C@H](c1cccc(Cl)c1F)[C@]1(C(=O)Nc3cc(Cl)ccc31)N2CC1CC1)N1CCOCC1` [Ib-220] displayed an IC50 of 10 nM.
With `CN1CCN(C(=O)c2ccc3c(c2)nc2n3CC[C@H]3[C@@H]2[C@H](c2cccc(Cl)c2F)[C@]2(C(=O)Nc4cc(Cl)ccc42)N3CC2CC2)CC1` [Ib-221] the figure was 10 nM.

Usually IC50 stands for the concentration at which inhibition is half-maximal. A high value points to weaker potency in that assay.
